According to patent US20240228555A9, “ANTIMICROBIAL PEPTIDOMIMETICS” (Basilea Pharmaceutica International AG, Allschwil, priority 2020, published 2024):
Read-outs that look alike come from different tables or passages of the source. Where a SMILES comes first, the peptide text is derived from it.

Assays:
[1] = test system: Escherichia coli MCR-1 Af 45; conditions: Mueller-Hinton broth II, no visible growth after 18-20 hours at 35° C.
Procedure, shortened: (§1)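 Standardized inocula (0.5 McFarland in saline, then diluted in MHII broth to approximately 5×10^5 CFU/mL) were exposed to two-fold dilution series of each peptide in the presence of polysorbate 80 (0.002% final).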

[2] = test system: Klebsiella pneumoniae SSI3010
Procedure, shortened: as §1

[3] = test system: Escherichia coli ATCC 25922
Procedure, shortened: as §1

[4] = test system: human red blood cells (hRBC); format: cell-based
Procedure, shortened: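 Percent lysis was derived from supernatant absorbance at 540 nm relative to full lysis by 2.5% Triton X-100 (PBS defines 0%). Compounds, 200 μg/mL, were exposed for 1 h at 37° C to a 20% (v/v) suspension of washed human red cells.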

[5] = red cells of human, 1 h, 0.2 g/L
[6] = Mueller-Hinton broth II, no visible growth after 18-20 hours at 35° C.

CC[C@H](C)[C@@H]1NC(=O)[C@@H](NC(=O)[C@H](Cc2ccc(O)cc2)NC(=O)[C@@H](NC(=O)[C@@H](NC(=O)[C@@H]2C[C@@H](O)CN2C(=O)[C@@H](N)C(C)C)[C@@H](C)CC)[C@@H](C)O)C(C)(C)SSC[C@@H](C(=O)N[C@@H](CCN)C(=O)N[C@@H](CO)C(=O)N[C@@H](Cc2ccc(O)cc2)C(=O)O)NC(=O)[C@H](CCCCN)NC(=O)[C@@H](CCN)NC(=O)[C@H]([C@@H](C)O)NC(=O)[C@H](CCN)NC(=O)[C@H](CCCNC(=N)N)NC1=O [Example 99, Val-Hyp-Ile-Thr-Tyr-Pen-Ile-Arg-Dab-Thr-^DDab-Lys-Cys-Dab-Ser-Tyr] (HELM PEPTIDE1{V.[Hyp].I.T.Y.[Pen].I.R.[Dab].T.[NCC[C@@H](N[*:1])C(=O)[*:2]].K.C.[Dab].S.Y}$PEPTIDE1,PEPTIDE1,6:R3-13:R3$$$V2.0)
Escherichia coli MCR-1 Af 45 MIC [1]: 0.125 mg/L | Klebsiella pneumoniae SSI3010 MIC ([2]; SSI3010): 0.25 mg/L | Escherichia coli ATCC 25922 MIC ([3]; ATCC 25922): 0.125 mg/L | Hemolysis at 0.2 g/L [4, 5]: <1%

CC[C@H](C)[C@H](NC(=O)[C@@H]1C[C@@H](O)CN1C(=O)[C@@H](N)C(C)C)C(=O)N[C@H](C(=O)N[C@@H](Cc1ccc(O)cc1)C(=O)N[C@@H]1C(=O)N[C@@H](CC(N)=O)C(=O)N[C@@H](CCCNC(=N)N)C(=O)N[C@@H](CCN)C(=O)N[C@@H](CO)C(=O)N[C@H](CCN)C(=O)N[C@@H](CCCCN)C(=O)N[C@H](C(=O)N[C@@H](CCN)C(=O)N[C@@H](CCCN)C(=O)N[C@@H](Cc2ccc(O)cc2)C(=O)O)CSSC1(C)C)[C@@H](C)O [Example 94, Val-Hyp-Ile-Thr-Tyr-Pen-Asn-Arg-Dab-Ser-^DDab-Lys-Cys-Dab-Orn-Tyr] (HELM PEPTIDE1{V.[Hyp].I.T.Y.[Pen].N.R.[Dab].S.[NCC[C@@H](N[*:1])C(=O)[*:2]].K.C.[Dab].[Orn].Y}$PEPTIDE1,PEPTIDE1,6:R3-13:R3$$$V2.0)
Escherichia coli MCR-1 Af 45 MIC [1]: 0.0625 mg/L | Klebsiella pneumoniae SSI3010 MIC ([2]; SSI3010): 0.25 mg/L | Escherichia coli ATCC 25922 MIC ([3]; ATCC 25922): 0.0625 mg/L | Hemolysis at 0.2 g/L [4, 5]: <1%

CC[C@H](C)[C@H](NC(=O)[C@@H]1C=CCN1C(=O)[C@@H](N)C(C)C)C(=O)N[C@H](C(=O)N[C@@H](Cc1ccc(O)cc1)C(=O)N[C@@H]1C(=O)N[C@@H](CC(N)=O)C(=O)N[C@@H](CCCNC(=N)N)C(=O)N[C@@H](CCN)C(=O)N[C@@H]([C@@H](C)O)C(=O)N[C@H](CCN)C(=O)N[C@@H](CCCCN)C(=O)N[C@H](C(=O)N[C@@H](CCN)C(=O)N[C@@H](CCCNC(=N)N)C(=O)N[C@@H](Cc2ccc(O)cc2)C(=O)O)CSSC1(C)C)[C@@H](C)O [Example 128, Val-Pro(3,4dehydro)-Ile-Thr-Tyr-Pen-Asn-Arg-Dab-Thr-^DDab-Lys-Cys-Dab-Arg-Tyr] (HELM PEPTIDE1{V.[O=C([C@@H]1C=CCN1[*:1])[*:2]].I.T.Y.[Pen].N.R.[Dab].T.[NCC[C@@H](N[*:1])C(=O)[*:2]].K.C.[Dab].R.Y}$PEPTIDE1,PEPTIDE1,6:R3-13:R3$$$V2.0)
Escherichia coli MCR-1 Af 45 MIC [1]: 0.125 mg/L | Klebsiella pneumoniae SSI3010 MIC ([2]; SSI3010): 0.25 mg/L | Escherichia coli ATCC 25922 MIC ([3]; ATCC 25922): 0.125 mg/L | Hemolysis at 0.2 g/L [4, 5]: <1%

CC[C@H](C)[C@H](NC(=O)[C@@H]1C[C@@H](O)CN1C(=O)[C@@H](N)C(C)C)C(=O)N[C@@H](CCN)C(=O)N[C@@H](Cc1ccc(O)cc1)C(=O)N[C@@H]1C(=O)N[C@@H](CC(N)=O)C(=O)N[C@@H](CCCNC(=N)N)C(=O)N[C@@H](CCN)C(=O)N[C@@H]([C@@H](C)O)C(=O)N[C@H](CCN)C(=O)N[C@@H](CCCNC(N)=O)C(=O)N[C@H](C(=O)N[C@@H](CCN)C(=O)N[C@@H](CO)C(=O)N[C@@H](Cc2ccc(O)cc2)C(=O)O)CSSC1(C)C [Example 108, Val-Hyp-Ile-Dab-Tyr-Pen-Asn-Arg-Dab-Thr-^DDab-Cit-Cys-Dab-Ser-Tyr] (HELM PEPTIDE1{V.[Hyp].I.[Dab].Y.[Pen].N.R.[Dab].T.[NCC[C@@H](N[*:1])C(=O)[*:2]].[Cit].C.[Dab].S.Y}$PEPTIDE1,PEPTIDE1,6:R3-13:R3$$$V2.0)
Escherichia coli MCR-1 Af 45 MIC [1]: 0.125 mg/L | Klebsiella pneumoniae SSI3010 MIC ([2]; SSI3010): 0.25 mg/L | Escherichia coli ATCC 25922 MIC ([3]; ATCC 25922): 0.25 mg/L | Hemolysis at 0.2 g/L [4, 5]: <1%

CC[C@H](C)[C@H](NC(=O)[C@@H](NC(=O)[C@@H]1C[C@@H](N)CN1C(=O)[C@@H](N)C(C)C)[C@@H](C)CC)C(=O)N[C@@H](Cc1ccc(O)cc1)C(=O)N[C@@H]1C(=O)N[C@@H](CC(N)=O)C(=O)N[C@@H](CCCNC(=N)N)C(=O)N[C@@H](CCN)C(=O)N[C@@H]([C@@H](C)O)C(=O)N[C@H](CCN)C(=O)N[C@@H]([C@@H](C)CC)C(=O)N[C@H](C(=O)N[C@@H](CCN)C(=O)N[C@@H](CCCNC(=N)N)C(=O)N[C@@H](Cc2ccc(O)cc2)C(=O)O)CSSC1(C)C [Example 90, Val-Pro((4R)NH2)-Ile-Ile-Tyr-Pen-Asn-Arg-Dab-Thr-^DDab-Ile-Cys-Dab-Arg-Tyr] (HELM PEPTIDE1{V.[N[C@@H]1C[C@@H](C(=O)[*:2])N([*:1])C1].I.I.Y.[Pen].N.R.[Dab].T.[NCC[C@@H](N[*:1])C(=O)[*:2]].I.C.[Dab].R.Y}$PEPTIDE1,PEPTIDE1,6:R3-13:R3$$$V2.0)
Escherichia coli MCR-1 Af 45 MIC [1]: 0.0625 mg/L | Klebsiella pneumoniae SSI3010 MIC ([2]; SSI3010): 0.25 mg/L | Escherichia coli ATCC 25922 MIC ([3]; ATCC 25922): 0.125 mg/L | Hemolysis at 0.2 g/L [4, 5]: <1%

CC[C@H](C)[C@H](NC(=O)[C@@H](NC(=O)[C@@H]1C[C@@H](O)CN1C(=O)[C@@H](N)C(C)C)[C@@H](C)CC)C(=O)N[C@@H](Cc1ccc(O)cc1)C(=O)N[C@@H]1C(=O)N[C@@H](CC(N)=O)C(=O)N[C@@H](CCCNC(=N)N)C(=O)N[C@@H](CCN)C(=O)N[C@@H](CO)C(=O)N[C@H](CCN)C(=O)N[C@@H](CCCCN)C(=O)N[C@H](C(=O)N[C@@H](CCN)C(=O)N[C@@H](CCCNC(=N)N)C(=O)N[C@@H](Cc2ccc(O)cc2)C(=O)O)CSSC1(C)C [Example 75, Val-Hyp-Ile-Ile-Tyr-Pen-Asn-Arg-Dab-Ser-^DDab-Lys-Cys-Dab-Arg-Tyr] (HELM PEPTIDE1{V.[Hyp].I.I.Y.[Pen].N.R.[Dab].S.[NCC[C@@H](N[*:1])C(=O)[*:2]].K.C.[Dab].R.Y}$PEPTIDE1,PEPTIDE1,6:R3-13:R3$$$V2.0)
Escherichia coli MCR-1 Af 45 MIC [1]: 0.0625 mg/L | Klebsiella pneumoniae SSI3010 MIC ([2]; SSI3010): 0.125 mg/L | Escherichia coli ATCC 25922 MIC ([3]; ATCC 25922): 0.0625 mg/L | Hemolysis at 0.2 g/L [4, 5]: <1%

CC[C@H](C)[C@H](NC(=O)[C@@H]1C[C@@H](N)CN1C(=O)[C@@H](N)C(C)C)C(=O)N[C@H](C(=O)N[C@@H](Cc1ccc(O)cc1)C(=O)N[C@@H]1C(=O)N[C@@H](CC(N)=O)C(=O)N[C@@H](CCCNC(=N)N)C(=O)N[C@@H](CCN)C(=O)N[C@@H]([C@@H](C)O)C(=O)N[C@H](CCN)C(=O)N[C@@H](CCCNC(N)=O)C(=O)N[C@H](C(=O)N[C@@H](CCN)C(=O)N[C@@H](CO)C(=O)N[C@@H](Cc2ccc(O)cc2)C(=O)O)CSSC1(C)C)[C@@H](C)O [Example 102, Val-Pro((4R)NH2)-Ile-Thr-Tyr-Pen-Asn-Arg-Dab-Thr-^DDab-Cit-Cys-Dab-Ser-Tyr] (HELM PEPTIDE1{V.[N[C@@H]1C[C@@H](C(=O)[*:2])N([*:1])C1].I.T.Y.[Pen].N.R.[Dab].T.[NCC[C@@H](N[*:1])C(=O)[*:2]].[Cit].C.[Dab].S.Y}$PEPTIDE1,PEPTIDE1,6:R3-13:R3$$$V2.0)
Escherichia coli MCR-1 Af 45 MIC [1]: 0.125 mg/L | Klebsiella pneumoniae SSI3010 MIC ([2]; SSI3010): 0.25 mg/L | Escherichia coli ATCC 25922 MIC ([3]; ATCC 25922): 0.25 mg/L | Hemolysis at 0.2 g/L [4, 5]: <1%

CC[C@H](C)[C@H](NC(=O)[C@@H]1C[C@@H](O)CN1C(=O)[C@@H](N)C(C)C)C(=O)N[C@@H](CCN)C(=O)N[C@@H](Cc1ccc(O)cc1)C(=O)N[C@@H]1C(=O)N[C@@H](CC(N)=O)C(=O)N[C@@H](CCCNC(=N)N)C(=O)N[C@@H](CCN)C(=O)N[C@@H]([C@@H](C)O)C(=O)N[C@H](CCN)C(=O)N[C@@H](CCCCN)C(=O)N[C@H](C(=O)N[C@@H](CCN)C(=O)N[C@@H](CCCN)C(=O)N[C@@H](Cc2ccc(O)cc2)C(=O)O)CSSC1(C)C [Example 89, Val-Hyp-Ile-Dab-Tyr-Pen-Asn-Arg-Dab-Thr-^DDab-Lys-Cys-Dab-Orn-Tyr] (HELM PEPTIDE1{V.[Hyp].I.[Dab].Y.[Pen].N.R.[Dab].T.[NCC[C@@H](N[*:1])C(=O)[*:2]].K.C.[Dab].[Orn].Y}$PEPTIDE1,PEPTIDE1,6:R3-13:R3$$$V2.0)
Escherichia coli MCR-1 Af 45 MIC [1]: 0.0625 mg/L | Klebsiella pneumoniae SSI3010 MIC ([2]; SSI3010): 0.25 mg/L | Escherichia coli ATCC 25922 MIC ([3]; ATCC 25922): 0.0625 mg/L | Hemolysis at 0.2 g/L [4, 5]: <1%

CC[C@H](C)[C@H](NC(=O)[C@@H]1C[C@@H](O)CN1C(=O)[C@@H](N)C(C)C)C(=O)N[C@H](C(=O)N[C@@H](Cc1ccc(O)cc1)C(=O)N[C@@H]1C(=O)N[C@@H](CC(N)=O)C(=O)N[C@@H](CCCNC(=N)N)C(=O)N[C@@H](CCN)C(=O)N[C@@H]([C@@H](C)O)C(=O)N[C@H](CCN)C(=O)N[C@@H](CCCCN)C(=O)N[C@H](C(=O)N[C@@H](CCN)C(=O)N[C@@H](CCCNC(C)C)C(=O)N[C@@H](Cc2ccc(O)cc2)C(=O)O)CSSC1(C)C)[C@@H](C)O [Example 136, Hyp-Ile-Thr-Tyr-Pen-Asn-Arg-Dab-Thr-^DDab-Lys-Cys-Dab-Orn(iPr)-Tyr] (HELM PEPTIDE1{V.[Hyp].I.T.Y.[Pen].N.R.[Dab].T.[NCC[C@@H](N[*:1])C(=O)[*:2]].K.C.[Dab].[CC(C)NCCC[C@H](N[*:1])C(=O)[*:2]].Y}$PEPTIDE1,PEPTIDE1,6:R3-13:R3$$$V2.0)
Escherichia coli MCR-1 Af 45 MIC [1]: 0.25 mg/L | Klebsiella pneumoniae SSI3010 MIC ([2]; SSI3010): 0.5 mg/L | Escherichia coli ATCC 25922 MIC ([3]; ATCC 25922): 0.125 mg/L | Hemolysis at 0.2 g/L [4, 5]: <1%

Val-NalloThr-Ile-Thr-Tyr-Pen-Asn-Arg-Dab-Thr-^DDab-Lys-Cys-Dab-Arg-Tyr [Example 133]
Escherichia coli MCR-1 Af 45 MIC [1]: 0.25 mg/L | Klebsiella pneumoniae SSI3010 MIC [2, 6]: 0.5 mg/L | Escherichia coli ATCC 25922 MIC [3, 6]: 0.25 mg/L | Hemolysis at 0.2 g/L [4]: <1%
